Assay results reported in patent US20260356819A1, “OXOISOINDOLINYL-SUBSTITUTED […] DERIVATIVE AND USE THEREOF” (GLUETACS THERAPEUTICS (SHANGHAI) CO., LTD., priority 2023, published 2026).

Experiments:
Assay type in all cases: cell-based
Details in all cases: compounds at 50 nM and 500 nM
[1] = target: T1, CK1α (Homo sapiens, UniProt P48729+Q96SW2); assay: Western blot degradation of CK1α in hPBMCs (24 h)
T1 construct: The supernatant was aspirated as the extracted total cell protein; endogenous in cells; host or cells: human peripheral blood mononuclear cells (hPBMCs)
Summary of the method: (§1)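 hPBMCs (1×10^6 cells/mL) exposed to compound at 50 nM and 500 nM for 24 h, DMSO as reference. Lysates run on SDS-PAGE and immunoblotted. Band grayscale normalized to internal control gives % protein remaining; DC50 from fitted concentration-response of band intensity versus DMSO.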

[2] = target: T2, IKZF3 (Homo sapiens, UniProt Q96SW2+Q9UKT9); assay: Western blot degradation of IKZF3 in hPBMCs (24 h)
T2 construct: The supernatant was aspirated as the extracted total cell protein; endogenous in cells; host or cells: human peripheral blood mononuclear cells (hPBMCs)
Summary of the method: as §1

[3] = target: T3, WEE1 (Homo sapiens, UniProt P30291+Q96SW2); assay: Western blot degradation of WEE1 in hPBMCs (24 h)
T3 construct: The supernatant was aspirated as the extracted total cell protein; endogenous in cells; host or cells: human peripheral blood mononuclear cells (hPBMCs)
Summary of the method: as §1

[4] = target: T4, IKZF1 (Homo sapiens, UniProt Q13422+Q96SW2); assay: Western blot degradation of IKZF1 in hPBMCs (24 h)
T4 construct: The supernatant was aspirated as the extracted total cell protein; endogenous in cells; host or cells: human peripheral blood mononuclear cells (hPBMCs)
Summary of the method: as §1

[5] = target: T5, IKZF2 (Homo sapiens, UniProt Q96SW2+Q9UKS7); assay: Western blot degradation of IKZF2 in hPBMCs (24 h)
T5 construct: The supernatant was aspirated as the extracted total cell protein; endogenous in cells; host or cells: human peripheral blood mononuclear cells (hPBMCs)
Summary of the method: as §1

[6] = target: T6, GSPT1 (Homo sapiens, UniProt P15170+Q96SW2); assay: Western blot degradation of GSPT1 in hPBMCs (24 h)
T6 construct: The supernatant was aspirated as the extracted total cell protein; endogenous in cells; host or cells: human peripheral blood mononuclear cells (hPBMCs)
Summary of the method: as §1

T1 sequence (P48729 whole entry): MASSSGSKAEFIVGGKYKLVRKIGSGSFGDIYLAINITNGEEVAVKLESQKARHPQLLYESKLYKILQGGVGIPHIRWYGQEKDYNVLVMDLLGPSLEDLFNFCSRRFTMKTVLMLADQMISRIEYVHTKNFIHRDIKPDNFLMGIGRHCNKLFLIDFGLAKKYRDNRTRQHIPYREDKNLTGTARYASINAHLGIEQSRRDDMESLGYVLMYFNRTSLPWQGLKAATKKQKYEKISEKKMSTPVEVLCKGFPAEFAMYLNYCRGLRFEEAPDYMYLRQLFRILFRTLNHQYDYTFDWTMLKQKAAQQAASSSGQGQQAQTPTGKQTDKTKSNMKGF
T1 sequence (Q96SW2 whole entry): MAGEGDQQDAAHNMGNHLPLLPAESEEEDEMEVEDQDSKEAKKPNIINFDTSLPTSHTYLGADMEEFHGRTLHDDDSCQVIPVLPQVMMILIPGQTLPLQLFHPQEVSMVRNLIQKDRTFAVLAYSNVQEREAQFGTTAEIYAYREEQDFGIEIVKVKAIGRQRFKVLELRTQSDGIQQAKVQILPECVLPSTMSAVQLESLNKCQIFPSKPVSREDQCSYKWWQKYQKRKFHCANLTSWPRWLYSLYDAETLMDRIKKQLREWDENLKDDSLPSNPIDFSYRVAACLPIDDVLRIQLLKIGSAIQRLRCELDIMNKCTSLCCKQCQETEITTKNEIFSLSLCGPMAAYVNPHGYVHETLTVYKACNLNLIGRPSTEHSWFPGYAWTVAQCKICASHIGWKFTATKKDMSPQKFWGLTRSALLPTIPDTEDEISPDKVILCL
T1 sequence (Q16531 whole entry partner): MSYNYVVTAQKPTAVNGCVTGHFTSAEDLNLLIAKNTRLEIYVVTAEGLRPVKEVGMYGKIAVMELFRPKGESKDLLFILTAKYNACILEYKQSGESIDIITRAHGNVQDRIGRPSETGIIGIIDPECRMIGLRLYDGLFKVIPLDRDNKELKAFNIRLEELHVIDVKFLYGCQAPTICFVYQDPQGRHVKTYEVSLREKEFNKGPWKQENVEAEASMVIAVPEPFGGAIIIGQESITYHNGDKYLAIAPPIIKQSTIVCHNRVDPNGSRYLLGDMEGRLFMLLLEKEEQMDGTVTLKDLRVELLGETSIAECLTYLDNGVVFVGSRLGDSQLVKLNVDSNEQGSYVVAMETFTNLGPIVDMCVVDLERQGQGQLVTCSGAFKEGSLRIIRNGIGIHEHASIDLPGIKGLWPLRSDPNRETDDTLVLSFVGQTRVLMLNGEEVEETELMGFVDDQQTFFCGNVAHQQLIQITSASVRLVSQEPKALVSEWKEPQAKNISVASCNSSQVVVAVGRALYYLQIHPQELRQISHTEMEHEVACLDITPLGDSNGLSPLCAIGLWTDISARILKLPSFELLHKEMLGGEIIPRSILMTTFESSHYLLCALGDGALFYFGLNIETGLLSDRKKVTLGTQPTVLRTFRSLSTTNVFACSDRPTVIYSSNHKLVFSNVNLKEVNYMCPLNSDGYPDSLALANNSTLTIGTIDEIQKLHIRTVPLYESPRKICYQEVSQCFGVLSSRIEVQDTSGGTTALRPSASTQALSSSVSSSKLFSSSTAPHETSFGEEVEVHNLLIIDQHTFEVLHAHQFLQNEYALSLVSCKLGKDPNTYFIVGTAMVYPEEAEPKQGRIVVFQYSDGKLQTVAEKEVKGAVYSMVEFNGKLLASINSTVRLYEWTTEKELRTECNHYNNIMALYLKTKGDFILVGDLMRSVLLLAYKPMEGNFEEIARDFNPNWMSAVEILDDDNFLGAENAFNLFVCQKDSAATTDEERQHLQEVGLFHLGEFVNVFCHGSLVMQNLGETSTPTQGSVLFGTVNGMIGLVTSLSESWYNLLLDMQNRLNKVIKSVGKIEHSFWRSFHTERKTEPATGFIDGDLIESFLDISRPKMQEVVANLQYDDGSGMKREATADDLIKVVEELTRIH
T2 sequence (Q9UKT9 whole entry): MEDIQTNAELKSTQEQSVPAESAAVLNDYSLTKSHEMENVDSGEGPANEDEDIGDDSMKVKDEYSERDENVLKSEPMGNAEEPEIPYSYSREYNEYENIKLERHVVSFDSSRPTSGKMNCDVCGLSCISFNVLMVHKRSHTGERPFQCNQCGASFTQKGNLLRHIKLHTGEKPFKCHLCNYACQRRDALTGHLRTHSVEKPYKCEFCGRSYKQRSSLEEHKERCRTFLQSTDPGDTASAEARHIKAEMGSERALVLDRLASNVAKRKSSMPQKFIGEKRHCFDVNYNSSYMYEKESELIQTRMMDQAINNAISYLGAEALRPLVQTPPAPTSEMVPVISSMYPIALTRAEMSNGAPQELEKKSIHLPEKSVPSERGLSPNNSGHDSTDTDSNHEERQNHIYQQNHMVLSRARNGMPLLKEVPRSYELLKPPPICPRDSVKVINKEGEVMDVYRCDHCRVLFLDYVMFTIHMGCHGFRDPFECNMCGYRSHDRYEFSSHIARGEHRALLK
T2 sequence (Q96SW2 whole entry): as the sequence (Q96SW2 whole entry) above
T2 sequence (Q16531 whole entry partner): as the sequence (Q16531 whole entry partner) above
T4 sequence (Q13422 whole entry): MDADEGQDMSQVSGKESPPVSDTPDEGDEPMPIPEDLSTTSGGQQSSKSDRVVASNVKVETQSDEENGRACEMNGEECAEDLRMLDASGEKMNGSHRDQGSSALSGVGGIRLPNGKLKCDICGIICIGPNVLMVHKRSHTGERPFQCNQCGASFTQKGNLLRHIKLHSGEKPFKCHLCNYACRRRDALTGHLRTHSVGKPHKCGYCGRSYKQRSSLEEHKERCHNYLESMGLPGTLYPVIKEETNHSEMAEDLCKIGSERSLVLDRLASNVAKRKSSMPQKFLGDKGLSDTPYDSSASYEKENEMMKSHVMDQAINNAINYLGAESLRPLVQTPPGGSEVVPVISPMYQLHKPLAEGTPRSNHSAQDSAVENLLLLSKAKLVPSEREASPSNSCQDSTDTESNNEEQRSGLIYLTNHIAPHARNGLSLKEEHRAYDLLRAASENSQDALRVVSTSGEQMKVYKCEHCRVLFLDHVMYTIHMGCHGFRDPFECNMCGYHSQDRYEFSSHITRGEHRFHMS
T4 sequence (Q96SW2 whole entry): as the sequence (Q96SW2 whole entry) above
T4 sequence (Q16531 whole entry partner): as the sequence (Q16531 whole entry partner) above
T6 sequence (P15170 whole entry): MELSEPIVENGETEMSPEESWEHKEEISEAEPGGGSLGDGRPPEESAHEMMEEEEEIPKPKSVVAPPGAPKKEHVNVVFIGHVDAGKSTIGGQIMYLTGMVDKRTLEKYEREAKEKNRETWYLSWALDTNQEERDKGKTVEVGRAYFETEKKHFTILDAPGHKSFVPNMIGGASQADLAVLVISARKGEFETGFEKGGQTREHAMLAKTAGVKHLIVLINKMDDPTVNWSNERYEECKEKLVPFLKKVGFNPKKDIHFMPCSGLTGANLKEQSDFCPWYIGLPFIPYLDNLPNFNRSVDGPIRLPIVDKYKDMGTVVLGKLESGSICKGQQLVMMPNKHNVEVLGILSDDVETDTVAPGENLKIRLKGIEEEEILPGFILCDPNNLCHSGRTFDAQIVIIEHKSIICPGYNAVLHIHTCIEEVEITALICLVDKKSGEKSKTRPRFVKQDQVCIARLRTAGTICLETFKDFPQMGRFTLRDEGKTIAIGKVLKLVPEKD
T6 sequence (Q96SW2 whole entry): as the sequence (Q96SW2 whole entry) above
T6 sequence (Q16531 whole entry partner): as the sequence (Q16531 whole entry partner) above
T5 sequence (Q9UKS7 whole entry): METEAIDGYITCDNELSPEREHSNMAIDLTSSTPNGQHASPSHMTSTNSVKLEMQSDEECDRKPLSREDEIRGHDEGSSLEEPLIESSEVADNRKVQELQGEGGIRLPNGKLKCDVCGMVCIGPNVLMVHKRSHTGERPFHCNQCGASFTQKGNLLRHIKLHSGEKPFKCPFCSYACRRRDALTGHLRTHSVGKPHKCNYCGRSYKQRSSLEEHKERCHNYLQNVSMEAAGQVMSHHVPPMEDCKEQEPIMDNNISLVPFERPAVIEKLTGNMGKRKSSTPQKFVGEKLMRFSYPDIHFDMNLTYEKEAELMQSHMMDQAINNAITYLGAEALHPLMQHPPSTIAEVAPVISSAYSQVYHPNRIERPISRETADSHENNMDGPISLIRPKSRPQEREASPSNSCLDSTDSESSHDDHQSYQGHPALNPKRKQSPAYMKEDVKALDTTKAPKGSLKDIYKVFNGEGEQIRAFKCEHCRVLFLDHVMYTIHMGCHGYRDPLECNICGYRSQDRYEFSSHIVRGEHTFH
T5 sequence (Q96SW2 whole entry): as the sequence (Q96SW2 whole entry) above
T5 sequence (Q16531 whole entry partner): as the sequence (Q16531 whole entry partner) above

| SMILES | CK1α substrate protein remaining % [1] | IKZF3 substrate protein remaining % [2] | WEE1 substrate protein remaining % [3] | IKZF1 substrate protein remaining % [4] | IKZF2 substrate protein remaining % [5] | GSPT1 substrate protein remaining % [6] |
| --- | --- | --- | --- | --- | --- | --- |
| O=C1CCN(N2C(=O)c3ccc(CN4CCN(c5n[nH]c6cc(F)ccc56)CC4)cc3C2=O)C(=O)N1 [GT-07527, 2-(2,4-dioxotetrahydropyrimidin-1(2H)-yl)-5-((4-(6-fluoro-1H-indazol-3-yl)piperazin-1-yl)methyl)isoindoline-1,3-dione] | A (0% ≤ substrate protein remaining % ≤80%) | B (80%< substrate protein remaining % ≤100%) | B (80%< substrate protein remaining % ≤100%) | B (80%< substrate protein remaining % ≤100%) | B (80%< substrate protein remaining % ≤100%) | A (0% ≤ substrate protein remaining % ≤80%) |
| O=C1CCN(N2C(=O)c3ccc(CN4CCN(c5nc(N6CCOCC6)nc6ccsc56)CC4)cc3C2=O)C(=O)N1 [GT-08455, 2-(2,4-dioxotetrahydropyrimidin-1(2H)-yl)-5-((4-(2-morpholinothieno[3,2-d]pyrimidin-4-yl)piperazin-1-yl)methyl)isoindoline-1,3-dione] | A (0% ≤ substrate protein remaining % ≤80%) | A (0% ≤ substrate protein remaining % ≤80%) | B (80%< substrate protein remaining % ≤100%) | B (80%< substrate protein remaining % ≤100%) | B (80%< substrate protein remaining % ≤100%) | A (0% ≤ substrate protein remaining % ≤80%) |
| O=C1CCN(N2C(=O)c3ccc(CN4CCN(c5ncnc6sccc56)CC4)cc3C2=O)C(=O)N1 [GT-08090, 2-(2,4-dioxotetrahydropyrimidin-1(2H)-yl)-5-((4-(thieno[2,3-d]pyrimidin-4-yl)piperazin-1-yl)methyl)isoindoline-1,3-dione] | A (0% ≤ substrate protein remaining % ≤80%) | B (80%< substrate protein remaining % ≤100%) | A (0% ≤ substrate protein remaining % ≤80%) | B (80%< substrate protein remaining % ≤100%) | B (80%< substrate protein remaining % ≤100%) | A (0% ≤ substrate protein remaining % ≤80%) |
| O=C1CCN(N2C(=O)c3ccc(CN4CC=C(c5ncccc5F)CC4)cc3C2=O)C(=O)N1 [GT-07492, 2-(2,4-dioxotetrahydropyrimidin-1(2H)-yl)-5-((3-fluoro-3′,6′-dihydro-[2,4′-bipyridin]-1′ (2′H)-yl)methyl)isoindoline-1,3-dione] | A (0% ≤ substrate protein remaining % ≤80%) | B (80%< substrate protein remaining % ≤100%) | B (80%< substrate protein remaining % ≤100%) | B (80%< substrate protein remaining % ≤100%) | B (80%< substrate protein remaining % ≤100%) | B (80%< substrate protein remaining % ≤100%) |
| O=C1CCN(N2Cc3cc(CN4CCC(c5nccc(Cl)c5Cl)CC4)ccc3C2=O)C(=O)N1 [GT-06388, 1-(5-((4-(3,4-dichloropyridin-2-yl)piperidin-1-yl)methyl)-1-oxoisoindolin-2-yl)dihydropyrimidine-2,4(1H,3H)-dione] | B (80%< substrate protein remaining % ≤100%) | B (80%< substrate protein remaining % ≤100%) | B (80%< substrate protein remaining % ≤100%) | B (80%< substrate protein remaining % ≤100%) | B (80%< substrate protein remaining % ≤100%) | A (0% ≤ substrate protein remaining % ≤80%) |
